{
  "source": "patent US8992998B2",
  "about": "“MAPK inhibition by H2” (priority 2010, dated 2015)",
  "key": {"p38gamma": {"target": "T1, p38gamma (Homo sapiens, UniProt P53778)", "T1 sequence (P53778 1-367)": "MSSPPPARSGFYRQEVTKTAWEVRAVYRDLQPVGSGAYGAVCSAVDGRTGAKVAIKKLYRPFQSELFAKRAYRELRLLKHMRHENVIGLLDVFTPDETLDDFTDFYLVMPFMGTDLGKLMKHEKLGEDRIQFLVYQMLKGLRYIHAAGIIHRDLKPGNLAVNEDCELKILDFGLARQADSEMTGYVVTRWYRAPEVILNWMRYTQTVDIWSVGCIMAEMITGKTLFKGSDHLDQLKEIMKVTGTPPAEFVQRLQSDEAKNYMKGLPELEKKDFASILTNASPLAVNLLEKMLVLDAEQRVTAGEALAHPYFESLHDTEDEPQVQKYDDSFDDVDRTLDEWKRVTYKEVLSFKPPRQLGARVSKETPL", "conditions": "cited from earlier work"}, "p38b": {"target": "p38b (Homo sapiens, UniProt Q15759)", "sequence (Q15759 whole entry, species assumed)": "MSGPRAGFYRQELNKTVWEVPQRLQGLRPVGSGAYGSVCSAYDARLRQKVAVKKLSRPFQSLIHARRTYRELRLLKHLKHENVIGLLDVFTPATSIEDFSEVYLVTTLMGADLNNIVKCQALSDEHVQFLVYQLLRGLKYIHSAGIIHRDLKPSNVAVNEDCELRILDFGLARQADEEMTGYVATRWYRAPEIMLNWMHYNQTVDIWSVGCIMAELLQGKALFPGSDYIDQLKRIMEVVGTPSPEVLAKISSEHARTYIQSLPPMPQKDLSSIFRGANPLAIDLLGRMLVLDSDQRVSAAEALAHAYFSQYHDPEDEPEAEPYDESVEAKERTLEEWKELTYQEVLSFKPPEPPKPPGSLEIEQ", "conditions": "cited from earlier work"}, "p38delta": {"target": "T2, p38delta (Homo sapiens, UniProt O15264)", "T2 sequence (O15264 1-365)": "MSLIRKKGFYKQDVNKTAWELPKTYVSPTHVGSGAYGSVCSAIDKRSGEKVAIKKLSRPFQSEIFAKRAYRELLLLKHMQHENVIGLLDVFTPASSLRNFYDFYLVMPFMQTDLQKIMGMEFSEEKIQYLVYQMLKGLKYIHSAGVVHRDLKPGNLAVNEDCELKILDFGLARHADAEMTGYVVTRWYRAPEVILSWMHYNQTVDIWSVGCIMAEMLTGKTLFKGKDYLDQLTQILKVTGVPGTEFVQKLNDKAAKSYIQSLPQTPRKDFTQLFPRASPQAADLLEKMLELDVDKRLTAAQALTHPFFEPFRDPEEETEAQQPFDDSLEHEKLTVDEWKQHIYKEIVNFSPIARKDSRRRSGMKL", "conditions": "cited from earlier work"}, "[1]": {"tested_on": "MAPKs (ERK, p38, and JNK)", "assay": "Phosphorylated MAPKs levels in peritoneal cells isolated from treated mice", "type": "in vivo, mouse", "conditions": "i.p., 45 minutes prior to isolation", "experimental": "After 45 minutes, peritoneal suspensions were obtained by peritoneal lavage as previously described. […] The peritoneal cells were immediately lysed in lysis buffer and performed Immunoblotting as described above."}, "DCs": {"tested_on": "DCs", "conditions": "LPS stimulation"}, "BMMs": {"tested_on": "BMMs", "assay": "Proinflammatory cytokine production (ELISA) from stimulated bone marrow derived macrophages", "type": "cell-based, mouse", "conditions": "for IL-6 production induced by LPS (Example 5): FIG. 5C"}, "MKP-1": {"tested_on": "MKP-1", "conditions": "BMMs, within 20 minutes"}, "[2]": {"tested_on": "MAPKs (ERK, p38, and JNK)", "conditions": "non-stimulated BMMs, time dependent"}, "[3]": {"tested_on": "ROS (hydroxyl radical, superoxide, H2O2) in BMMs", "assay": "Intracellular ROS production in LPS-stimulated BMMs (HPF / CM-H2DCFDA fluorescence)", "type": "cell-based, mouse", "experimental": "Invitrogen) detects superoxide, H2O2, and hydroxyl radical. […] After preculture, the cells were exposed to LPS ([…]) for 30 minutes and immediately HPF fluorescence or fluorophore DCF were detected at an excitation wavelength of 485 nm and an emission wavelength of 530 nm with a fluorometric imaging plate reader, Synergy HT (Biotech Instruments, Winooski, Vt.)."}, "[4]": {"tested_on": "MAPKs (ERK, p38, and JNK)", "assay": "Immunoblotting of MAPKs phosphorylation in stimulated BMMs", "type": "cell-based, mouse"}, "[5]": {"tested_on": "LPS-induced endotoxin shock", "assay": "LPS-induced endotoxin shock in mice: survival rate and plasma/serum TNF-α and IL-6", "type": "in vivo, C57BL/6j mice"}, "[6]": {"conditions": "lethal dose of LPS, treatment i.p., plasma 4 hour after LPS"}},
  "data": [
    {"smiles": "C[S+]([O-])c1ccc(-c2nc(-c3ccncc3)c(-c3ccc(F)cc3)[nH]2)cc1", "note": "(stereo not drawn) [SB203580]", "values": [
      {"measurement": "sensitivity to inhibition", "setting": "p38gamma", "value": "unaffected"},
      {"measurement": "sensitivity to inhibition", "setting": "p38b", "value": "sensitive"},
      {"measurement": "sensitivity to inhibition", "setting": "p38delta", "value": "unaffected"}
    ]},
    {"smiles": "[HH]", "note": "[H2, molecular hydrogen]", "values": [
      {"measurement": "phosphorylation of MAPKs in peritoneal cells", "setting": "[1]", "value": "decreased"},
      {"measurement": "IL-6 production", "setting": "DCs", "value": "suppressed"},
      {"measurement": "IL-12p40 production", "setting": "DCs", "value": "suppressed"},
      {"measurement": "TNF-α production", "setting": "DCs", "value": "suppressed"},
      {"measurement": "IL-6 production", "setting": "BMMs; LPS stimulation", "value": "suppressed"},
      {"measurement": "IL-12p40 production", "setting": "BMMs; LPS stimulation", "value": "suppressed"},
      {"measurement": "TNF-α production", "setting": "BMMs; LPS stimulation", "value": "suppressed"},
      {"measurement": "IL-6 production induced by LPS (Example 5)", "setting": "BMMs", "value": "down-regulated"},
      {"measurement": "IL-6 production induced by PGN", "setting": "BMMs", "value": "down-regulated"},
      {"measurement": "IL-6 production induced by poly(I:C)", "setting": "BMMs", "value": "down-regulated"},
      {"measurement": "TNF-α production induced by poly(I:C)", "setting": "BMMs", "value": "suppressed"},
      {"measurement": "expression of MKP-1 protein", "setting": "MKP-1", "value": "up-regulated"},
      {"measurement": "basal levels of phosphorylated ERK, p38, and JNK", "setting": "[2]", "value": "decreased"},
      {"measurement": "LPS-mediated induction of fluorescence from DCF (superoxide, H2O2, or hydroxyl radical)", "setting": "[3]", "value": "not affected"},
      {"measurement": "LPS-mediated induction of hydroxyl radical (HPF)", "setting": "[3]", "value": "suppressed"},
      {"measurement": "H2 concentration at saturation", "setting": "PBS or culture medium, 25° C.", "value": 780, "unit": "mM"},
      {"measurement": "pH", "setting": "saturated H2 in water", "value": 7.6},
      {"measurement": "redox potential (ORP level)", "setting": "saturated H2 in water", "value": "−511", "unit": "mV"},
      {"measurement": "phosphorylation level of MAPKs induced by LPS", "setting": "[4]; LPS, ERK, p38 and JNK", "value": "obviously decreased"},
      {"measurement": "level of phosphorylated ERK, LPS-induced", "setting": "[4]; LPS, FIG. 5E", "value": "decreased"},
      {"measurement": "PGN-induced phosphorylation of ERK and p38", "setting": "[4]", "value": "blocked"},
      {"measurement": "poly(I:C)-induced MAPKs phosphorylation", "setting": "[4]", "value": "attenuated"},
      {"measurement": "survival rate", "setting": "[5]; mouse, in vivo", "value": 90, "unit": "%"},
      {"measurement": "protection from lethal endotoxin shock", "setting": "[5]; mouse, in vivo, po", "value": "prevented the mice from lethal endotoxin shock"},
      {"measurement": "IL-6 production in serum", "setting": "[5]; oral administration", "value": "down-regulation"},
      {"measurement": "TNF-a production in serum", "setting": "[5]; oral administration", "value": "down-regulation"}
    ]},
    {"smiles": "CC(=O)N[C@@H](CS)C(=O)O", "note": "[NAC, N-acetyl-L-cysteine, reference compound]", "values": [
      {"measurement": "phosphorylation of MAPKs in peritoneal cells", "setting": "[1]", "value": "did not reduce"},
      {"measurement": "IL-6 production induced by LPS (Example 5)", "setting": "BMMs", "value": "still inhibited"},
      {"measurement": "IL-6 production induced by PGN", "setting": "BMMs", "value": "did not inhibit"},
      {"measurement": "IL-6 production induced by poly(I:C)", "setting": "BMMs", "value": "did not inhibit"},
      {"measurement": "TNF-α production induced by poly(I:C)", "setting": "BMMs", "value": "not"},
      {"measurement": "LPS-mediated induction of fluorescence from DCF (superoxide, H2O2, or hydroxyl radical)", "setting": "[3]", "value": "remarkably inhibited"},
      {"measurement": "LPS-mediated induction of hydroxyl radical (HPF)", "setting": "[3]", "value": "suppressed"},
      {"measurement": "PGN-induced phosphorylation of ERK and p38", "setting": "[4]", "value": "inhibited little or no"},
      {"measurement": "poly(I:C)-induced MAPKs phosphorylation", "setting": "[4]", "value": "not"},
      {"measurement": "serum IL-6 production", "setting": "[5]; [6]", "value": "significantly suppressed"},
      {"measurement": "serum TNF-α production", "setting": "[5]; [6]", "value": "significantly suppressed"},
      {"measurement": "survival rate", "setting": "[5]; mouse, in vivo", "value": 20, "unit": "%"},
      {"measurement": "survival rate", "setting": "[5]; mouse, in vivo, ip", "value": 70, "unit": "%"}
    ]}
  ]
}
